# Test results: the Kinase Knowledgebase extract (Sharma et al. 2016)
# Values joined by “and” are separate entries in the source; they are usually repeats but may differ in a detail not shown here. Equal values may be shown once.
# Target: EGFR (UniProt P00533)
# Sequence (P00533 whole entry, looked up): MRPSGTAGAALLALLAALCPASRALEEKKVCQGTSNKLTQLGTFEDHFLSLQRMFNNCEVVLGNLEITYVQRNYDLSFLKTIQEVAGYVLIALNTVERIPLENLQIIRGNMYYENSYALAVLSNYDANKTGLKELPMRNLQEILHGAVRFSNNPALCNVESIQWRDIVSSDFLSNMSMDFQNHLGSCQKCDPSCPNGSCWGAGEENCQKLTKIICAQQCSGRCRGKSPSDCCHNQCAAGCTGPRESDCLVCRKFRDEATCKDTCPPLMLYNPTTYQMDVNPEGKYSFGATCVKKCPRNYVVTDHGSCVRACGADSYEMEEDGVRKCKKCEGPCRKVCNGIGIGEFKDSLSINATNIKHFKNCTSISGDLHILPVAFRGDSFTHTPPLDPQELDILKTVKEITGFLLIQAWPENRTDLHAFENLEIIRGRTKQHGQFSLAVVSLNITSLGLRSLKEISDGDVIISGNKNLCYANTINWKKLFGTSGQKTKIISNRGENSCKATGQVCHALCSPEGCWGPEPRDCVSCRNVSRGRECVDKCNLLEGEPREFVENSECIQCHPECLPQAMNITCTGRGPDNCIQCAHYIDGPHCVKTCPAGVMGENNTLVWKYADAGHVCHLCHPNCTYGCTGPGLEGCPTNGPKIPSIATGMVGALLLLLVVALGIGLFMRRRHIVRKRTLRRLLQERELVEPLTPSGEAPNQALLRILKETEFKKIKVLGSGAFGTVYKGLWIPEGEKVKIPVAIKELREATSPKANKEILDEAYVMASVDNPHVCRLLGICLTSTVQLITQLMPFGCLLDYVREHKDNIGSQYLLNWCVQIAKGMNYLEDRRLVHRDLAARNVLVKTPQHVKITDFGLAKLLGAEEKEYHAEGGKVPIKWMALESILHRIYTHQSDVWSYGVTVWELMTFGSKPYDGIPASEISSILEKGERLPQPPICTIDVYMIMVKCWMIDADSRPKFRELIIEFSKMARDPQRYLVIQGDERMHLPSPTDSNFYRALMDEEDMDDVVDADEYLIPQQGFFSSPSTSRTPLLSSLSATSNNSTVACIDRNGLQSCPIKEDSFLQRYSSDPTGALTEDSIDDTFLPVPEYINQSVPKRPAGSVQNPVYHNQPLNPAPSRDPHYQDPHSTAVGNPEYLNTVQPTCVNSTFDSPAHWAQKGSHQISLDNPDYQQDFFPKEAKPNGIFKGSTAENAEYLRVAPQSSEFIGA
row,IC50,SMILES
1,0.4 to 2.4 µg/mL,COc1ccc(Nc2ncnc(NCc3cccc(Cl)c3)n2)cc1OC
2,2.4 to 3.5 µg/mL,COc1cccc(Nc2ncnc(-n3c(N)nc4ccccc43)n2)c1
3,> 4.5 µg/mL,FC(F)C(F)(F)Oc1cccc(Nc2ncnc(-c3cccs3)n2)c1
4,> 4.5 µg/mL,CCOC(=O)N1CCC(Nc2ncnc(N3CCCc4cc(C)ccc43)n2)CC1
5,2.4 to 3.5 µg/mL,NC(=O)c1ccc(Nc2ncnc(-n3c(N)nc4ccccc43)n2)cc1
6,> 4.5 µg/mL,COc1cc(Nc2ncnc(Nc3ccc(N4CCOCC4)cc3)n2)cc(OC)c1OC
7,> 4.5 µg/mL,COc1ccccc1Nc1ncnc(-c2ccccc2)n1
8,> 4.5 µg/mL,COC(=O)c1cc(OC)c(OC)cc1Nc1ncnc(-n2c(N)nc3ccccc32)n1
9,0.4 to 2.4 µg/mL,Cc1ccc2c(c1)CCCN2c1ncnc(Nc2ccc(F)c(F)c2)n1
10,3.5 to 4.5 µg/mL,COc1cc(Nc2ncnc(-n3c(Nc4ccc5[nH]ccc5c4)nc4ccccc43)n2)cc(OC)c1OC
11,> 4.5 µg/mL,FC(F)C(F)(F)Oc1cccc(Nc2ncnc(-c3ccnc(N4CCCCC4)c3)n2)c1
12,> 4.5 µg/mL,COc1ccc(CNc2nc3ccccc3n2-c2ncnc(Nc3cc(OC)c(OC)c(OC)c3)n2)cc1
13,2.4 to 3.5 µg/mL,Nc1nc2ccccc2n1-c1ncnc(Nc2cccnc2)n1
14,> 4.5 µg/mL,COc1cc(Nc2ncnc(-c3cccnc3Nc3ccccc3C)n2)cc(OC)c1OC
15,> 4.5 µg/mL,CN(c1cccc(Cl)c1)c1ncnc(Cl)n1
16,< 0.4 µg/mL,COc1cc(Nc2ncnc(Nc3ccc(Oc4ccccc4)cc3)n2)cc(OC)c1OC
17,< 0.4 µg/mL,C=CCN(c1cccc(Cl)c1)c1ncnc(Nc2cc(OC)cc(OC)c2)n1
18,< 0.4 µg/mL,COc1cc(Nc2ncnc(N3CCCc4cc(C)ccc43)n2)cc(OC)c1OC
19,> 4.5 µg/mL,COc1cc(Nc2ncnc(-n3c(=O)[nH]c4ccccc43)n2)cc(OCCN2CCOCC2)c1OC
20,0.4 to 2.4 µg/mL,CC(C)(C)c1cc(Nc2ncnc(Nc3cccc(CO)c3)n2)[nH]n1
21,> 4.5 µg/mL,COc1cc(C)c(Nc2ncnc(Nc3cc(-c4ccc(C)cc4)n[nH]3)n2)cc1OC
22,> 4.5 µg/mL,COc1cc(Nc2ncnc(-c3cccnc3Nc3cccc(Oc4ccccc4)c3)n2)cc(OC)c1OC

row,IC50,SMILES
1,> 4.5 µg/mL,COc1cc(Nc2ncnc(-n3c(NCC(N)=O)nc4ccccc43)n2)cc(OC)c1OC
2,> 4.5 µg/mL,COc1ccc(Nc2ncnc(-n3c(=O)[nH]c4ccccc43)n2)cn1
3,> 4.5 µg/mL,NC(=O)c1ccc(Nc2ncnc(-c3ccccc3)n2)cc1
4,> 4.5 µg/mL,Nc1ccc(Nc2ncnc(-c3ccccc3)n2)cc1
5,2.4 to 3.5 µg/mL,COC(=O)c1ccc(-c2cc(Nc3ncnc(NCc4cccs4)n3)[nH]n2)cc1
6,0.4 to 2.4 µg/mL,CCc1ccc(Nc2ncnc(-n3c(N)nc4ccccc43)n2)cc1
7,> 4.5 µg/mL,COc1cc(Nc2ncnc(Nc3ccc(N(C)C(C)=O)cc3)n2)cc(OC)c1OC
8,3.5 to 4.5 µg/mL,COc1cc(Nc2ncnc(-n3ccc4ccc(Cl)cc43)n2)cc(OC)c1OC
9,> 4.5 µg/mL,COc1cc(Nc2ncnc(-n3c(NCc4ccc5c(c4)OCO5)nc4ccccc43)n2)cc(OC)c1OC
10,> 4.5 µg/mL,NC(=O)[C@H](CO)Nc1ncnc(-n2c(=O)[nH]c3ccccc32)n1
11,> 4.5 µg/mL,Nc1ncnc(Nc2ccc(C3CCCCC3)cc2)n1
12,> 4.5 µg/mL,COc1cc(Nc2ncnc(-c3ccc(N(C)C)nc3)n2)cc(OC)c1OC
13,> 4.5 µg/mL,COc1cc(OC)nc(Nc2ncnc(-n3c(=O)[nH]c4ccccc43)n2)n1
14,2.4 to 3.5 µg/mL,c1ccc(CNc2nc3ccccc3n2-c2ncnc(Nc3cccc(Cn4ccnn4)c3)n2)nc1
15,> 4.5 µg/mL,COc1cc(Nc2ncnc(Nc3[nH]ncc3-c3cccs3)n2)cc(OC)c1OC
16,> 4.5 µg/mL,COc1ccc2c(c1)nc(Nc1ccc3[nH]ccc3c1)n2-c1ncnc(Nc2cc(OC)c(OC)c(OC)c2)n1.COc1ccc2nc(Nc3ccc4[nH]ccc4c3)n(-c3ncnc(Nc4cc(OC)c(OC)c(OC)c4)n3)c2c1
17,> 4.5 µg/mL,CCN(CC)CCCCNc1cc(-c2ncnc(Nc3cc(OC)c(OC)c(OC)c3)n2)ccn1
18,> 4.5 µg/mL,COc1cc(Nc2ncnc(-n3c(N[C@H](CO)c4ccccc4)nc4ccccc43)n2)cc(OC)c1OC
19,> 4.5 µg/mL,COc1cc(Nc2ncnc(-n3c(NCc4ccccn4)nc4ccccc43)n2)cc(OC)c1OCCN1CCOCC1
20,> 4.5 µg/mL,CCN(CC)CCCNc1ccc(-c2ncnc(Nc3cc(OC)c(OC)c(OC)c3)n2)cn1
21,< 0.4 µg/mL,CN(c1cccc(Cl)c1)c1ncnc(Nc2ccccc2)n1
22,> 4.5 µg/mL,Clc1ncnc(Nc2cc(-c3ccccc3)n[nH]2)n1

# Continued, compound first:
row,SMILES,IC50
1,COc1cc(Nc2ncnc(Nc3cc(C)nn3C)n2)cc(OC)c1OC,3.5 to 4.5 µg/mL and > 4.5 µg/mL
2,COc1cc(Nc2ncnc(Nc3cccc(OCc4ccccc4)c3)n2)cc(OC)c1OC,> 4.5 µg/mL
3,COC(=O)c1ccc(-c2cc(Nc3ncnc(NCCN4CCOCC4)n3)[nH]n2)cc1,2.4 to 3.5 µg/mL
4,COc1cc(Nc2ncnc(Nc3ccc4c(c3)OCO4)n2)cc(OC)c1OC,0.4 to 2.4 µg/mL
5,CC(=O)NCc1ccc(Nc2ncnc(Nc3cc(-c4ccco4)n[nH]3)n2)cc1,0.4 to 2.4 µg/mL
6,Fc1ccc(Nc2ncnc(Nc3ccc4[nH]ccc4c3)n2)cc1Cl,< 0.4 µg/mL
7,COc1cc(Nc2ncnc(N(CC(=O)OC(C)(C)C)c3ccc(Cl)cc3)n2)cc(OC)c1OC,0.4 to 2.4 µg/mL
8,CNc1ncnc(Nc2cc(OC)c(OC)c(OC)c2)n1,> 4.5 µg/mL
9,COc1cc(Nc2ncnc(-n3c(=O)[nH]c4ccccc43)n2)cc(OC)c1OC,3.5 to 4.5 µg/mL
10,Cc1ccc2c(c1)CCCN2c1ncnc(NCCN2CCOCC2)n1,> 4.5 µg/mL
11,COc1cc(Nc2ncnc(Nc3ccc(OCC(=O)Nc4ccccc4)cc3)n2)cc(OC)c1OC,0.4 to 2.4 µg/mL
12,COc1cc(C)c(Nc2ncnc(Nc3cc(-c4ccc(Cl)cc4)n[nH]3)n2)cc1OC,3.5 to 4.5 µg/mL
13,COc1ccc(Nc2ncccc2-c2ncnc(Nc3cc(OC)c(OC)c(OC)c3)n2)c(C)c1,> 4.5 µg/mL
14,COc1ccc(Nc2ncnc(Nc3cc(-c4ccccc4)n[nH]3)n2)cc1OC,0.4 to 2.4 µg/mL
15,O=c1[nH]c2ccccc2n1-c1ncnc(Nc2cccc(-c3cnco3)c2)n1,0.4 to 2.4 µg/mL
16,COc1cc(Nc2ncnc(Nc3nnc(-c4ccccc4)[nH]3)n2)cc(OC)c1OC,> 4.5 µg/mL
17,COc1cc(Nc2ncnc(-c3cccnc3Cl)n2)cc(OC)c1OCCN1CCOCC1,> 4.5 µg/mL
18,COc1cc(Nc2ncnc(-n3c(NCCc4cccnc4)nc4ccccc43)n2)cc(OC)c1OC,> 4.5 µg/mL
19,COc1cc(Nc2ncnc(-n3c(NCCc4ccccc4)nc4ccccc43)n2)cc(OC)c1OC,0.4 to 2.4 µg/mL
20,COc1cc(Nc2ncnc(N(Cc3ccccc3)c3nc4ccccc4[nH]3)n2)cc(OC)c1OC,2.4 to 3.5 µg/mL
21,O=c1[nH]c2ccccc2n1-c1ncnc(Nc2ccccc2[N+](=O)[O-])n1,> 4.5 µg/mL

row,SMILES,IC50
1,COc1cc(Nc2ncnc(-c3cccnc3NCc3ccccc3F)n2)cc(OC)c1OC,> 4.5 µg/mL
2,COc1cc(Nc2ncnc(Nc3cccc(Cl)c3)n2)cc(OC)c1,< 0.4 µg/mL
3,COc1cc(Nc2ncnc(-c3cccnc3Nc3cccc4c3CCCC4)n2)cc(OC)c1OC,> 4.5 µg/mL
4,O=c1[nH]c2ccccc2n1-c1ncnc(Nc2cnc3ccccc3c2)n1,> 4.5 µg/mL
5,COc1cc(Nc2ncnc(Nc3nc4ccc(F)cc4s3)n2)cc(OC)c1OC,> 4.5 µg/mL
6,COc1cc(Nc2ncnc(Cc3ccc4c(cnn4Cc4ccccc4)c3)n2)cc(OC)c1OCCN1CCOCC1,< 0.4 µg/mL
7,Fc1ccc(Nc2ncnc(Cl)n2)cc1Cl,> 4.5 µg/mL
8,COc1cc(Nc2ncnc(-n3c(Nc4ccc(Cl)cc4)nc4ccccc43)n2)cc(OC)c1OC,> 4.5 µg/mL
9,Cc1cccc(Nc2ncnc(-n3cccc3)n2)c1C,> 4.5 µg/mL
10,COc1cc(Nc2ncnc(-c3ccncc3)n2)cc(OC)c1OC,> 4.5 µg/mL
11,Nc1ncnc(Nc2ccc3c(c2)OCO3)n1,3.5 to 4.5 µg/mL
12,COc1cc(Nc2ncnc(Nc3ncncn3)n2)cc(OC)c1OC,> 4.5 µg/mL
13,COc1cc(Nc2ncnc(Nc3ccc(NC(C)=O)c(C(F)(F)F)c3)n2)cc(OC)c1OC,2.4 to 3.5 µg/mL
14,COc1ccc2c(c1)nc(NCc1ccccc1)n2-c1ncnc(Nc2cc(OC)c(OC)c(OC)c2)n1.COc1ccc2nc(NCc3ccccc3)n(-c3ncnc(Nc4cc(OC)c(OC)c(OC)c4)n3)c2c1,0.4 to 2.4 µg/mL
15,COc1ccc(CNc2ncnc(Nc3cc(-c4ccco4)[nH]n3)n2)cc1OC,0.4 to 2.4 µg/mL
16,COc1cc(Nc2ncnc(Nc3ccc(Br)cc3)n2)cc(OC)c1OC,0.4 to 2.4 µg/mL
17,COc1ccc(Nc2ncnc(-n3c(N)nc4ccccc43)n2)cc1OCCN1CCOCC1,> 4.5 µg/mL
18,COc1cc(Nc2ncnc(Nc3cccc(C(=O)O)c3)n2)cc(OC)c1OC,< 0.4 µg/mL
19,COc1cc(Nc2ncnc(-n3cc(OC(C)=O)c4ccccc43)n2)cc(OC)c1OC,> 4.5 µg/mL
20,COc1ccc(Nc2ncnc(NCC(O)c3ccccc3)n2)cc1OC (stereo not given),3.5 to 4.5 µg/mL
21,Fc1cccc(CNc2nc3ccccc3n2-c2ncnc(Nc3cccc(Cn4ccnn4)c3)n2)c1,0.4 to 2.4 µg/mL

row,SMILES,IC50
1,COCCOc1ccc(Nc2ncnc(-n3c(N)nc4ccccc43)n2)cc1OC,3.5 to 4.5 µg/mL
2,COc1cc(Nc2ncnc(N)n2)cc(OC)c1OC,> 4.5 µg/mL
3,c1csc(-c2ncnc(Nc3ccc(N4CCOCC4)cc3)n2)c1,> 4.5 µg/mL
4,CN(c1cccc(Cl)c1)c1ncnc(Nc2ccc(CC(=O)O)cc2)n1,< 0.4 µg/mL
5,CCN(CC)CCOc1ccc(Nc2ncnc(-n3c(N)nc4ccccc43)n2)cc1OC,> 4.5 µg/mL
6,COc1cc(Nc2ncnc(-n3c(NCc4ccc(F)cc4)nc4ccccc43)n2)cc(OC)c1OC,> 4.5 µg/mL
7,COc1cc(Nc2ncnc(-n3c(NCc4cccs4)nc4ccccc43)n2)cc(OC)c1OC,0.4 to 2.4 µg/mL
8,O=C(Nc1cccc(Nc2ncnc(-n3c(=O)[nH]c4ccccc43)n2)c1)O[C@@H]1CCOC1,2.4 to 3.5 µg/mL
9,O=c1[nH]c2ccccc2n1-c1ncnc(Nc2cccc(OC(F)(F)F)c2)n1,> 4.5 µg/mL
10,Nc1nc2ccccc2n1-c1ncnc(Nc2cccc(Cn3ccnn3)c2)n1,2.4 to 3.5 µg/mL
11,O=c1[nH]c2ccccc2n1-c1ncnc(Nc2ccc(NS(=O)(=O)c3ccc([N+](=O)[O-])cc3)cc2)n1,0.4 to 2.4 µg/mL
12,COc1cc(Nc2ncnc(-n3ccc4cccnc43)n2)cc(OC)c1OC,> 4.5 µg/mL
13,COc1cc(Nc2ncnc(Nc3ccc(O)cc3Cl)n2)cc(OC)c1OC,0.4 to 2.4 µg/mL
14,NS(=O)(=O)c1ccc(Nc2ncnc(-n3c(=O)[nH]c4ccccc43)n2)cc1,> 4.5 µg/mL
15,COc1cc(Nc2ncnc(-c3ccc(C)cc3)n2)cc(OC)c1OC,> 4.5 µg/mL
16,CN(c1cccc(Cl)c1)c1ncnc(Nc2cc(C(C)(C)C)on2)n1,> 4.5 µg/mL
17,Cc1cccc(Nc2ncnc(Nc3cccc(Br)c3)n2)c1,< 0.4 µg/mL
18,COc1cc(Nc2ncnc(-n3c(NCc4ccc(C)cc4C)nc4ccccc43)n2)cc(OC)c1OC,> 4.5 µg/mL and 2.4 to 3.5 µg/mL
19,Fc1ccc(Nc2ncnc(-n3cccc3)n2)cc1,> 4.5 µg/mL
